Results published in ChEMBL document CHEMBL1201862, “PubChem BioAssay data set” (2004).
The source made the active and inactive calls.

Legend:
[1] = molecular target: Adenosylmethionine-8-amino-7-oxononanoate aminotransferase (Mycobacterium tuberculosis, UniProt P9WQ81); assay: Mycobacterium tuberculosis BioA enzyme inhibitor Measured in Biochemical System Using Plate Reader - 2163-02_Inhibitor_Dose_CherryPick_Activity.; type: functional, Mycobacterium tuberculosis UT205
[2] = intracellular Trypanosoma cruzi inhibitors in host cells – cell-based, plate reader, cherry-pick samples, set 3, dose response (AID 651818); type: functional;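 note: compounds incubated with infected cells for about four days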
[3] = Fluorescence-based cell-based high throughput dose response assay for inhibitors of the interaction of nucleotide-binding oligomerization domain containing 2 (NOD2) and the receptor-interacting serine-threonine kinase 2 (RIPK2).; type: functional; conditions: Homo sapiens
[4] = molecular target: T1, Rac GTPase-activating protein 1 (Homo sapiens, UniProt Q9H0H5); assay: MgcRacGAP GTPase-activating activity inhibitors, confirmation, biochemical, ADP Hunter fluorescence, primary and confirmatory (AID 624330); type: functional
T1 sequence (Q9H0H5 whole entry): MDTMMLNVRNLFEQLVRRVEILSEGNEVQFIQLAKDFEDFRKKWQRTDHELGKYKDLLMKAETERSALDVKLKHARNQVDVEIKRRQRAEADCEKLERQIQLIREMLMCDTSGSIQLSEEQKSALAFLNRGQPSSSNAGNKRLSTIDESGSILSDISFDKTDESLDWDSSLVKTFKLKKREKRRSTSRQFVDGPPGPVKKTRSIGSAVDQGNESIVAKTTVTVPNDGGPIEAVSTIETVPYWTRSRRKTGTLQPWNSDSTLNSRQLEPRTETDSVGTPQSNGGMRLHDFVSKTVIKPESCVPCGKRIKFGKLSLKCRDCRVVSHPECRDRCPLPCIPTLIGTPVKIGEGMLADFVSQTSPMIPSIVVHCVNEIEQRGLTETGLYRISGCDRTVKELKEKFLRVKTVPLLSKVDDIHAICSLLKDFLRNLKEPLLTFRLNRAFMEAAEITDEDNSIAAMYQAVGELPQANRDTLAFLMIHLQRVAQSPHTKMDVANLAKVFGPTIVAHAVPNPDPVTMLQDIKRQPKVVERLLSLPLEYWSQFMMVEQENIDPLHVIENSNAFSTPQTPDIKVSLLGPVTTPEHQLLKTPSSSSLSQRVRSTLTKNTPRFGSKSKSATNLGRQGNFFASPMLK

HEK293 = assay: inhibitors of LMP1-driven NF-kB reporter, dose response, cell-based, HEK293, luciferase, cherry-pick (AID 588343); type: functional; conditions: Homo sapiens
[5] = molecular target: T2, Microphthalmia-associated transcription factor (Homo sapiens, UniProt O75030); assay: TRPM1 promoter luciferase signal decrease, dose response, MITF inhibitor project, cell-based, SK-MEL-5, cherry-picked, set 3 (AID 493073); type: functional
T2 sequence (O75030 whole entry): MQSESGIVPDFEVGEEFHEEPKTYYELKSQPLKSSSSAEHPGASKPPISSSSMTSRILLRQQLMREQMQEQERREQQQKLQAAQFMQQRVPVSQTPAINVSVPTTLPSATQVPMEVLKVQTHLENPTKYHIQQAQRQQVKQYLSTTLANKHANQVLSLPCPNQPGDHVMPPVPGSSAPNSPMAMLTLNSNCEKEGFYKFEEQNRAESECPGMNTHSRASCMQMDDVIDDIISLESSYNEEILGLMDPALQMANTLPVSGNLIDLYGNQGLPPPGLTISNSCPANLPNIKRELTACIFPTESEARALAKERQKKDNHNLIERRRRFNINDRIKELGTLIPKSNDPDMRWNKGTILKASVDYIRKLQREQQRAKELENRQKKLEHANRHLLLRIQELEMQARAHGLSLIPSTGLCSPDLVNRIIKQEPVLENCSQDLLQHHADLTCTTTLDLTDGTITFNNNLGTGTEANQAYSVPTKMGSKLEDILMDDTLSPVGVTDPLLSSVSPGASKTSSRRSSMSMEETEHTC

[6] = molecular target: T3, Histone-lysine N-methyltransferase NSD2 (Homo sapiens, UniProt O96028); type: biochemical
T3 sequence (O96028 whole entry): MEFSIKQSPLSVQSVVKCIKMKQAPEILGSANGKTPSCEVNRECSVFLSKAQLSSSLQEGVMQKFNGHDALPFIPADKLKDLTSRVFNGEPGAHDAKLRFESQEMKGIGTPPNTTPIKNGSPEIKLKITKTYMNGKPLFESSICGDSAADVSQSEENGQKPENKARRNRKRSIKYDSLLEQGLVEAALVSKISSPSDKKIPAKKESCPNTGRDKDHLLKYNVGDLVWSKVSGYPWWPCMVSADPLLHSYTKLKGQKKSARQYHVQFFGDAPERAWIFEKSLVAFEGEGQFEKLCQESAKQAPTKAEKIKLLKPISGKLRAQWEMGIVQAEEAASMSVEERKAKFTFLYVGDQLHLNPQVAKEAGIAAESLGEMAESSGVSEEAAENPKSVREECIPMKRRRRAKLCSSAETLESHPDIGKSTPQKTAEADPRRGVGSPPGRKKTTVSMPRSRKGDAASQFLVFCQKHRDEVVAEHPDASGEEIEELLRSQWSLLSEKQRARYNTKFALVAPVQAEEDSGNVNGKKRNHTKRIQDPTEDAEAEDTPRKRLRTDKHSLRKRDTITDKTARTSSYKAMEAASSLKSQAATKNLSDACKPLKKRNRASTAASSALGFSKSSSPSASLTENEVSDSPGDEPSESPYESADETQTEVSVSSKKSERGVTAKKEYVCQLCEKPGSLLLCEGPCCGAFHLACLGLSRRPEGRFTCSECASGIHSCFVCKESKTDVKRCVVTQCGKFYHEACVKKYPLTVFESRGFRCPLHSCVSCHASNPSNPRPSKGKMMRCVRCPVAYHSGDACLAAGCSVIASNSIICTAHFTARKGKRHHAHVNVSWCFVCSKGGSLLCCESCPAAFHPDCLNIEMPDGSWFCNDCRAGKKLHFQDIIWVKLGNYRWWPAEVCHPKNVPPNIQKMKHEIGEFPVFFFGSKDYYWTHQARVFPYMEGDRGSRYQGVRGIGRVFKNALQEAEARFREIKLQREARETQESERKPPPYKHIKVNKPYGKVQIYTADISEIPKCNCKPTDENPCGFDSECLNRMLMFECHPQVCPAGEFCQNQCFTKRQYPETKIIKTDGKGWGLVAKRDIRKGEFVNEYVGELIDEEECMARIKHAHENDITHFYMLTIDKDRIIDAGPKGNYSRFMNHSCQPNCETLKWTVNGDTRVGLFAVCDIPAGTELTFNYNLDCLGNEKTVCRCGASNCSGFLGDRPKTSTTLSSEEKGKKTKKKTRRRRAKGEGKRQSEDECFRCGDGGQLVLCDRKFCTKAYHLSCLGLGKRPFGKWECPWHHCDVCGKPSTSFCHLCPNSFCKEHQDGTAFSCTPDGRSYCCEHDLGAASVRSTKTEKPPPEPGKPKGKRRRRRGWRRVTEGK

Protein Wnt-3a = Protein Wnt-3a (Mus musculus, UniProt P27467); assay: Wnt3a-driven reporter signaling inhibition, dose response, selectivity assay for Gli-SUFU antagonist project, Wnt-LIGHT cells, luminescence (AID 651570); type: functional; conditions: read-out: IC50_Mean;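 note: Wnt-LIGHT reporter cells stimulated with conditioned medium from Wnt3a-producing cells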
Protein Wnt-3a, sequence (P27467 whole entry): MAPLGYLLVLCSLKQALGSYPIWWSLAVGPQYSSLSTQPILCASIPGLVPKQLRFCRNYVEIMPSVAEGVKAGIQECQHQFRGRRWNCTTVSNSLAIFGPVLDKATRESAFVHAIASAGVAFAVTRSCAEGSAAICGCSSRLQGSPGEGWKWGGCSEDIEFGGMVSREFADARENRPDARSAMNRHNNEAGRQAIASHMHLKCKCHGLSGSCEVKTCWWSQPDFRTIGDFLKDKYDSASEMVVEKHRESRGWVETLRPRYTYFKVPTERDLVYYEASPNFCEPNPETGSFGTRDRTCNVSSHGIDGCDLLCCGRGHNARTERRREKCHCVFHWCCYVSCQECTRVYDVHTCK

BJ [7] = assay: cytotoxicity toward Ras-transformed BJeLR fibroblasts, dose response, cell-based, alamar blue fluorescence, cherrypicked samples (AID 2631); type: functional; conditions: Homo sapiens;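 note: confirmatory dose-response assay in RAS-dependent BJ fibroblasts engineered with TERT, LT and ST, with cytotoxicity read by fluorescence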
[8] = cytotoxicity toward DRD oncogenic fibroblasts, dose response, cell-based, non-viral oncogenic, luminescence (AID 1934); type: functional; conditions: Homo sapiens
BJ [9] = assay: cells; type: functional, cell-based; conditions: Homo sapiens
BJ [10] = assay: cytotoxicity toward BJ-TERT-LT-ST fibroblasts, dose response, cell-based, RAS-independent, luminescence (AID 1935); type: functional; conditions: Homo sapiens;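 note: BJ fibroblasts immortalized with TERT plus LT and ST oncogenes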
BJ [11] = assay: cytotoxicity toward BJ-TERT fibroblasts, dose response, cell-based, RAS-independent, luminescence (AID 1933); type: functional; conditions: Homo sapiens
[12] = StAR promoter reporter inhibition counter-screen, dose response, counter-screen for LRH-1 inverse agonist project, cell-based, luminescence, luciferase reporter (AID 651969); type: functional
Steroidogenic factor 1 = Steroidogenic factor 1 (Homo sapiens, UniProt Q13285); assay: Counterscreen for inverse agonists of the liver receptor homolog-1 (LRH-1; NR5A2): Luminescence-based cell-based high throughput dose response assay to identify inverse agonists of the Steroidogenic Factor 1 Nuclear Receptor (SF1; NR5A1).; type: functional
Steroidogenic factor 1, sequence (Q13285 whole entry): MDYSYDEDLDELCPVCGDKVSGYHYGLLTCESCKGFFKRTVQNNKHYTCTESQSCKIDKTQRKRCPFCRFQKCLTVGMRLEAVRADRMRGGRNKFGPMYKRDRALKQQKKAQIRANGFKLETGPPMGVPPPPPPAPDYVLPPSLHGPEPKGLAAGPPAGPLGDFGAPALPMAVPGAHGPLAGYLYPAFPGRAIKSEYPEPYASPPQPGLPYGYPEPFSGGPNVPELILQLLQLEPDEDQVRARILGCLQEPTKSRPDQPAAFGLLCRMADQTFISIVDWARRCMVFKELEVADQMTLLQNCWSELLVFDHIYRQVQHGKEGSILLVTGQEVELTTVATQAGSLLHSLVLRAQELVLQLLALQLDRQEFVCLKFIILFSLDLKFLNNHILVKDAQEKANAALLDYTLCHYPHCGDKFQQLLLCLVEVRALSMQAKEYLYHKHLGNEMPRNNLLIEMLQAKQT

cells = type: functional
[13] = molecular target: Nuclear receptor subfamily 5 group A member 2 (Homo sapiens, UniProt O00482); type: functional, cell-based;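 note: HEK293T cells transfected with LRH-1 and a StAR promoter luciferase reporter; potency for inhibitors that lower LRH-1 driven reporter light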
Nuclear receptor subfamily 5 group A member 2, sequence (O00482 whole entry): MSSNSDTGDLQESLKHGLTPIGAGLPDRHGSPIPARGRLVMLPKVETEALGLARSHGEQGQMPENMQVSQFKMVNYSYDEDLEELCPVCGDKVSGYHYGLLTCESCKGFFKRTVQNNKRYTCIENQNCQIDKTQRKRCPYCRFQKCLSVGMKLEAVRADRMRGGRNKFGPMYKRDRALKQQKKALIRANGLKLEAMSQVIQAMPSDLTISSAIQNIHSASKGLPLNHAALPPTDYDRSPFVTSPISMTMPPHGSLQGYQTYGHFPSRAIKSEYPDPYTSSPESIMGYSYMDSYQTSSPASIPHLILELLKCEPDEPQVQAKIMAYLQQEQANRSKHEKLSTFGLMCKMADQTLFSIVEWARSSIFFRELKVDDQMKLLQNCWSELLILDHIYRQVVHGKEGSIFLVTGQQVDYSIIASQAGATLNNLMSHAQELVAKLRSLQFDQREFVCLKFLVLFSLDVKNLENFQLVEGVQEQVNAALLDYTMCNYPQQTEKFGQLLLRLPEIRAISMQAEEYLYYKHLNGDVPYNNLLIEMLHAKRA

[14] = molecular target: Mitochondrial peptide methionine sulfoxide reductase (Bos taurus, UniProt P54149); type: functional;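 note: absorbance read-out, biochemical high-throughput dose-response screen for MsrA inhibitors, confirmatory; recombinant bovine MsrA coupled to E. coli TrxB with NADPH and selenocystamine; potency is for inhibitors of MsrA activity on DMSO substrate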
Mitochondrial peptide methionine sulfoxide reductase, sequence (P54149 whole entry): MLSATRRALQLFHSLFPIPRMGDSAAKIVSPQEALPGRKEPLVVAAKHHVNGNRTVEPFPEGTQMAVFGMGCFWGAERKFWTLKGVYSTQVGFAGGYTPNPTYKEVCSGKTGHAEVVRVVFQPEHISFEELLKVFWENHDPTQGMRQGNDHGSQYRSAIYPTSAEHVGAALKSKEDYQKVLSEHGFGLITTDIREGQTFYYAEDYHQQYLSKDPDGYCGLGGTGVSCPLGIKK

Adenosylmethionine-8-amino-7-oxononanoate aminotransferase, sequence (P9WQ81 whole entry): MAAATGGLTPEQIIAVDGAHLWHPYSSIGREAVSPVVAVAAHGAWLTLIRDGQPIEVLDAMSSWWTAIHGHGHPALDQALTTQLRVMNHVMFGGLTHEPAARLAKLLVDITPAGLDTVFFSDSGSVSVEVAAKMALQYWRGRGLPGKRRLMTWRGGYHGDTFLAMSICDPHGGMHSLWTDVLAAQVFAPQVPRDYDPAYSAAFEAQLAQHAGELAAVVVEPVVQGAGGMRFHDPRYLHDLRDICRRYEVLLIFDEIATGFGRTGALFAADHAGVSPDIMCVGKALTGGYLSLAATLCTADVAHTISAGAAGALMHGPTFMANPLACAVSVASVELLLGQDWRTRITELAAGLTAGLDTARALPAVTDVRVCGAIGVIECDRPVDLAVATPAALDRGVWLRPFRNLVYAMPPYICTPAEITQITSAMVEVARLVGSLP

**Q.** Which AC50 [1] does the source give for `COc1ccc(Nc2c(-c3ccc(OC)cc3)nc3cnccn23)cc1` here?
**A.** Its AC50 is 1.34 µM (active).

**Q.** Which AC50 [2] does the source give for `C[C@@H]1CN([C@@H](C)CO)C(=O)Cc2cc(NC(=O)Nc3ccc(F)cc3)ccc2O[C@@H]1CN(C)Cc1ccc(C(=O)Nc2ccccc2N)cc1` here?
**A.** The AC50 was 2.16 µM (active).

**Q.** What does the source list for `CCN(CC)CCC(=O)N1C/C(=C/c2ccccc2)C(=O)/C(=C\c2ccccc2)C1`?
**A.** IC50 [3]: 3.5 µM (active); IC50 [4]: 111 µM (active); AC50 (HEK293): 4.89 µM (active); AC50 [5]: 4.72 µM (active)

**Q.** Which AC50 [6] does the source give for `CCN1CCCC1CNc1[nH]cnc2c3cc(Cl)ccc3nc1-2` (stereo not drawn) here?
**A.** The AC50 was > 20 µM (inactive).

**Q.** What about the IC50 (Protein Wnt-3a) of the same compound?
**A.** The IC50 was 50 µM (inactive).

**Q.** Which results are given for `Cc1ccc(/C=C2\SC(=S)N(CCCC(=O)N3CCOCC3)C2=O)cc1`?
**A.** EC50 (BJ [7]): > 66.7 µM (inactive); EC50 [8]: 15.3 µM (active); EC50 (BJ [9]): > 150 µM (not active); EC50 (BJ [10]): > 150 µM (inconclusive); EC50 (BJ [11]): 7.06 µM (inconclusive)

**Q.** With `Cc1ccc(NC(=O)COC(=O)C(NS(=O)(=O)c2ccc(Cl)cc2)C(C)O)cc1C` (stereo not drawn) as the compound, how does the IC50 [12] read?
**A.** Its IC50 is 35.9 µM (inactive).

**Q.** What about the IC50 (Steroidogenic factor 1) of the same compound?
**A.** The IC50 was 2.17 µM (active).

**Q.** And the IC50 (cells)?
**A.** Its IC50 is 6.57 µM (active).

**Q.** What about the IC50 [13] of the same compound?
**A.** The IC50 was 12 µM (inactive).

**Q.** With `CCOC(=O)/C(C#N)=C/C(C(=N)N1CCN(c2ccc(OC)cc2)CC1)=C(/O)OCC` as the compound, how does the IC50 [14] read?
**A.** The IC50 was 139 µM (inactive).
